From patent US20150164855A1, “KETONE BODIES AND KETONE BODY ESTERS FOR MAINTAINING OR IMPROVING MUSCLE POWER OUTPUT” (priority 2012, published 2015)

What was measured:
Assay type in all cases: in vivo
[1] = Blood (R)-3-hydroxybutyrate concentration in rats following administration of ketones; details: for Peak Blood (R)-3-hydroxybutyrate: rats fed sour cream mix containing 2 g ketone in 10 ml water, blood before feeding and after 1, 3 and 6 hours
Procedure: Experiments were carried out to determine the concentration of blood (R)-3-hydroxybutyrate in rats following administration of various ketones. The ketones tested are set out in Table 4 below. The ketones were tasted in the same manner as Ketones 1 to 8 above.
Rats were each fed with a sour cream mix containing 2 g of a ketone as set out in […] in 10 ml water. Samples of blood from each rat were taken immediately prior to feeding, after 1 hour, 3 hours and 6 hours to determine the blood concentration of (R)-3-hydroxybutyrate. Two controls (Control A and Control B) were also tested by feeding with the same mix without the ketone added. The rats were humanely killed and dissected for visual inspection to determine whether pyloric constriction or other visible changes had occurred.
Blood was extracted and 0.1 ml of whole blood was added to 0.4 ml 3.6% perchloric acid subjected to vortex and then allowed to rest in ice for 30 minutes and then spun. 350 ul of acidic supernatant were then transferred to a new tube and 5 ul phenol red (0.05%), 20 ul 1 M Imidazole pH 7 and 3 M KHCO3 was added to neutralize the solution which was allowed to stand in ice for 30 minutes and then spun. A sample of the neutralized blood extract was then assayed for (R)-3-hydroxybutyrate.

[2] = Uptake of oligomeric ketones into the blood (Example 2)
Procedure: Procedures were carried out to determine the uptake of oligomeric ketones into the blood.

[3] = Single oral dose/response of blood (R)-3-hydroxybutyrate (Example 5); details: 192, 291, 395 and 573 mg/kg single dose
Procedure: (R)-3-hydroxybutyrate-R-1,3-butanediol monoester was administered in a single dose based on a fixed amount per kg of body weight of the subject to a number of subjects. The blood (R)-3-hydroxybutyrate concentration was determined over a period of time to determine the dose/response relationship between the oral single dose and the blood concentration of (R)-3-hydroxybutyrate. The procedure was repeated with different quantities of (R)-3-hydroxybutyrate-R-1,3-butanediol monoester to provide data on the dose/response relationship for (R)-3-hydroxybutyrate-R-1,3-butanediol monoester when administered at 192 mg/kg, 291 mg/kg, 395 mg/kg and 573 mg/kg.

[4] = Visual inspection of dissected rats for pyloric constriction or other visible changes; details: rats fed 2 g ketone, killed and dissected for visual inspection
Procedure: Rats were each fed with a sour cream mix containing 2 g of a ketone as set out in Table 3 in 10 ml water. […] Two controls (Control A and Control B) were also tested by feeding with the same mix without the ketone added. The rats were humanely killed and dissected for visual inspection to determine whether pyloric constriction or other visible changes had occurred.

Compound	Peak Blood (R)-3-hydroxybutyrate [1]	level of uptake to the blood relative to the linear/other oligomers tested (Ketones 9, 11 and 12) ([1]; rats, 2 g ketone)	blood level of (R)-3-hydroxybutyrate (peak) [2]	level of uptake to the blood relative to the triolide diester oligomer (Ketone 10) ([1]; rats, 2 g ketone)	blood (R)-3-hydroxybutyrate concentration after single oral dose [3]	Symptoms [4]
CC(O)CC(=O)OC(C)CC(=O)OC(C)CC(=O)OCC[C@@H](C)OC(=O)CC(C)OC(=O)CC(C)OC(=O)CC(C)O (stereo partly drawn) [Ketone 10, (R)-1,3-butanediol ditriolide ester]	about 1.5 mM	around 10 times	about 1.5 mM	–	–	–
(R)-3-hydroxybutyrate-(R)-1,3-butanediol [Ketone 8]	6 mM	–	6000 µM	around 4 times	levels not previously reported with other ketones	No pyloric constriction, no gas
